{
  "source": "patent US12370167B2",
  "about": "“Blood-brain barrier permeability regulator and use thereof” (ZHEJIANG UNIVERSITY, priority 2019, dated 2025)",
  "key": {"[1]": {"system": "brain microvascular endothelial cells bEnd.3", "experiment": "Transmembrane resistance of physiological blood-brain barrier Transwell model, SC79 dose dependence", "assay_type": "cell-based", "details": "SC79 0, 5, 10 μg/mL; 24 hours; n=5", "procedure": "A Transwell model of brain microvascular endothelial cells bEnd.3 was used to mimic the physiological blood-brain barrier. SC79 at different concentrations (0, 5 μg/mL, 10 μg/mL) was applied to the Transwell chamber. After 24 hours, the cell transmembrane resistance was detected by a cell resistance meter (n=5).\n(§1) Brain microvascular endothelial cells bEnd.3 were used as model cells of a blood-brain barrier. 0.5 mL suspension of well-grown bEnd.3 cells was inoculated in the chamber of a 12-well Transwell plate with a pore size of 0.4 μm at a cell density of 1×10^5/well. 1.5 mL of fresh culture medium was supplemented in the outer chamber. The culture medium was refreshed every other day. Incubation was continued for 15 days at 37° C. and 5% CO2. When the cell transmembrane resistance value was greater than 150 ohm·cm^2 (Ω·cm^2), it may be regarded that a model of physiological blood-brain barrier was obtained.\nA protein kinase B activator SC79 at different concentrations (0, 5 μg/mL, 10 μg/mL) was added into the Transwell chamber in the model of physiological blood-brain barrier. After 24 hours of the drug action, the Transwell chamber with bEnd.3 cells grown was transferred to another 12-well plate, and washed with PBS for 3 times. […] After the cells were equilibrated at 37° C. for 15 minutes, the cell transmembrane resistance was detected by a cell resistance meter."}, "[2]": {"system": "brain microvascular endothelial cells bEnd.3", "experiment": "FITC-dextran transport across physiological blood-brain barrier Transwell model", "assay_type": "cell-based", "details": "SC79 0, 5, 10 μg/mL; 24 hours, then FITC-dextran 10 kDa for 4 hours", "procedure": "FIG. 7: In vitro dose-dependent influence of SC79 on the efficiency of transportation of FITC-dextran cross the blood-brain barrier. A Transwell model of brain microvascular endothelial cells bEnd.3 was used to mimic the physiological blood-brain barrier. SC79 at different concentrations (0, 5 μg/mL, 10 μg/mL) was applied to the Transwell chamber. After 24 hours, the Transwell chamber and the outer chamber were washed with PBS. A solution of FITC-dextran in HBSS was added to the Transwell chamber for an action of 4 hours.\nas §1, with “When the cell transmembrane resistance value was greater than 150 ohm·cm^2 (Ω·cm^2), it may be regarded that a model of physiological blood-brain barrier was obtained.” left out\nA protein kinase B activator SC79 at different concentrations ([…], 10 μg/mL) was added into the Transwell chamber in the model of physiological blood-brain barrier. […] After the cells were incubated at 37° C. in the dark for 4 hours, the concentration of FITC-dextran transferred to the outer chamber via the Transwell chamber was detected with a fluorescence spectrophotometer."}, "[3]": {"system": "bEnd.3 cells; bEnd.3 co-incubated with U87 MG", "experiment": "Real-time transmembrane resistance of physiological and pathological blood-brain barrier models after SC79", "assay_type": "cell-based", "details": "SC79 5 μg/mL", "procedure": "FIG. 9: In vitro time-dependent regulation of transmembrane resistance of the blood-brain barrier by SC79. A Transwell model of brain microvascular endothelial cells bEnd.3 was used to mimic the physiological blood-brain barrier. A Transwell model of co-incubated brain microvascular endothelial cells bEnd.3 and glioma cell U87 MG was used to mimic the pathological blood-brain barrier. SC79 (5 μg/mL) was applied to the Transwell chamber. The cell transmembrane resistance was real-time monitored by a cell resistance meter (n=5).\nas §1, with “When the cell transmembrane resistance value was greater than 150 ohm·cm^2 (Ω·cm^2), it may be regarded that a model of physiological blood-brain barrier was obtained.” left out\nThe physiological blood-brain barrier and the pathological blood-brain barrier, as respectively constructed according to the procedures described in the above sections of 1 and 2 of Example 2, were used as a model, respectively. […] The cell transmembrane resistance was real-time monitored."}, "[4]": {"system": "blood-brain barrier permeability", "experiment": "Brain distribution of DiR-labelled Angiopep-2-modified glycolipid nano-delivery system after SC79 in in situ glioma model", "assay_type": "in vivo, BABL/c nude mice", "details": "SC79 5 mg/kg tail vein 24 hours before the DiR-labelled system; brain taken after 4 hours; vs tumor-bearing control group", "procedure": "FIG. 12: Regulation of increase in the blood-brain barrier permeability and enhancement of distribution of Angiopep-2-modified glycolipid nano-delivery system in the brain by SC79. SC79 was injected into tail veins of tumor-bearing animals at an administration dose of 5 mg/kg. After 24 hours, the Angiopep-2-modified glycolipid nano-delivery system encapsulated with near-infrared fluorescent probe DiR was injected into tail veins. After 4 hours, the intact brain of the nude mice was taken by cardiac perfusion.\nMale BABL/c nude mice (20+2 g) were used as the model animals. U87-luci glioma cells expressing luciferase were inoculated in the striatum area of nude mice at a concentration of 5×10^5 cells/5 μL by means of a brain stereotaxic instrument (inoculation coordinates, 0.8 mm on the anterior side of bregma, 2 mm on the right side, and 3 mm in depth), to construct an in situ glioma model. SC79 diluted with 0.2% injection grade Tween 80 solution was injected into tail veins at an administration dose of 5 mg/kg. After 24 hours, the Angiopep-2-modified glycolipid nano-delivery system encapsulated with near-infrared fluorescent probe DiR was injected into tail veins. After 4 hours, the intact brain of the nude mice was taken by cardiac perfusion. […]"}},
  "data": [
    {"compound": "CCOC(=O)C1=C(N)Oc2ccc(Cl)cc2C1C(C#N)C(=O)OCC", "note": "(centres unmarked) [SC79]", "values": [
      {"measurement": "cell transmembrane resistance", "setting": "[1]", "value": "dose-dependent regulation of transmembrane resistance"},
      {"measurement": "blood-brain barrier permeability (FITC-dextran in outer chamber)", "setting": "[2]", "value": "increase the blood-brain barrier permeability"},
      {"measurement": "effect in increasing the blood-brain barrier permeability", "setting": "[3]; after 24 hours of the drug action", "value": "most significant effect"},
      {"measurement": "cell transmembrane resistance over time", "setting": "[3]; physiological and pathological models, real-time", "value": "decreased in a time-dependent manner"},
      {"measurement": "distribution of Angiopep-2-modified glycolipid nano-delivery system in the brain", "setting": "[4]", "value": "increased"}
    ]}
  ]
}
